Literature values in publication PMC11291603, “Histidine-based ionizable cationic surfactants: novel biodegradable agents for hydrophilic macromolecular drug delivery” (Drug Delivery and Translational Research, 2024).

Columns and labels:
[1] = literature value, no reference given
[2] = as specified by the manufacturer

| pKa of the imidazolium ring [1] | Aqueous solubility [2] | SMILES |
| --- | --- | --- |
| 6.0-6.1 | – | N[C@@H](Cc1c[nH]cn1)C(=O)O [histidine] |
| – | 1 µg/mL | CCCCCCCCC(CO)CCCCCC (centres unmarked) [2-hexyl-1-decanol] |
